Test results published in US9802927B2, “Oxadiazine compounds and methods of use thereof” (Denali Therapeutics, Inc., priority 2015, dated 2017).

System: Aβ42
Test: In vitro cell screening assay in H4 cells expressing human APP751: Aβ42 by sandwich ELISA
Assay type: cell-based
Settings: compounds 0.003-10 μM, incubated overnight (16-18 h), sandwich ELISA of supernatant
Procedure, shortened: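 Secreted Aβ42 measured by sandwich ELISA, C-terminal-specific capture and 4G8-HRP detection, TMB read at 450 nm, from supernatants of APP751-expressing H4 cells exposed overnight (16-18 h) to 0.003-10 μM compound in Pro293 medium, 0.33% DMSO. Data scaled between DMSO and DAPT controls; EC50 from variable-slope nonlinear regression.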

| SMILES | EC50 |
| --- | --- |
| COc1nc(C2=NOCC(c3ccc(F)c(C(F)(F)F)c3)N2)ccc1-n1cnc(C)c1 (single isomer, unassigned) [Example 44A, 5-(4-fluoro-3-(trifluoromethyl)phenyl)-3-(6-methoxy-5-(4-methyl-1H-imidazol-1-yl)pyridin-2-yl)-5,6-dihydro-4H-1,2,4-oxadiazine] | > 3000 nM |
| COc1nc(C2=NOCC(c3cccc(C#N)c3)N2)ccc1-n1cnc(C)c1 (single isomer, unassigned; (+)) [Example 141B, (+)-3-(3-(6-methoxy-5-(4-methyl-1H-imidazol-1-yl)pyridin-2-yl)-5,6-dihydro-4H-1,2,4-oxadiazin-5-yl) benzonitrile] | 214 nM |
| COc1nc(C2=NOCC(c3ccccc3)N2)ccc1-n1cnc(C)c1 (single isomer, unassigned) [Example 36B, 3-(6-methoxy-5-(4-methyl-1H-imidazol-1-yl)pyridin-2-yl)-5-phenyl-5,6-dihydro-4H-1,2,4-oxadiazine] | 97 nM |
| COc1nc(C2=NOCC(c3cn(C)c4cc(F)c(C(F)(F)F)cc34)N2)ccc1-n1cnc(C)c1 (single isomer, unassigned; (+)) [Example 104B, (+)-5-(6-fluoro-1-methyl-5-(trifluoromethyl)-1H-indol-3-yl)-3-(6-methoxy-5-(4-methyl-1H-imidazol-1-yl)pyridin-2-yl)-5,6-dihydro-4H-1,2,4-oxadiazine] | 4.6 nM |
| COc1nc(C2=NOCC(C3CCCCC3)N2)ccc1-n1cnc(C)c1 (single isomer, unassigned; (-)) [Example 61A, (−)-5-cyclohexyl-3-(6-methoxy-5-(4-methyl-1H-imidazol-1-yl)pyridin-2-yl)-5,6-dihydro-4H-1,2,4-oxadiazine] | 775 nM |
| COc1nc(C2=NOCC(c3cc4cc(Cl)ccc4o3)N2)ccc1-n1cnc(C)c1 (single isomer, unassigned; (+)) [Example 57B, (+)-5-(5-chlorobenzofuran-2-yl)-3-(6-methoxy-5-(4-methyl-1H-imidazol-1-yl)pyridin-2-yl)-5,6-dihydro-4H-1,2,4-oxadiazine] | 17.8 nM |
| COc1nc(C2=NOCC(c3nn(C)c4ccc(C(F)(F)F)cc34)N2)ccc1-n1cnc(C)c1 (single isomer, unassigned; (+)) [Example 241B, (+)-3-(6-methoxy-5-(4-methyl-1H-imidazol-1-yl)pyridin-2-yl)-5-(1-methyl-5-(trifluoromethyl)-1H-indazol-3-yl)-5,6-dihydro-4H-1,2,4-oxadiazine] | 5.1 nM |
| COc1nc(C2=NOCC(c3ccc4ncccc4c3)N2)ccc1-n1cnc(C)c1 (single isomer, unassigned; (+)) [Example 224B, (+)-3-(6-methoxy-5-(4-methyl-1H-imidazol-1-yl)pyridin-2-yl)-5-(quinolin-6-yl)-5,6-dihydro-4H-1,2,4-oxadiazine] | 294 nM |
| COc1nc(C2=NOCC(c3cc4ccccc4o3)N2)ccc1-n1cnc(C)n1 (single isomer, unassigned; (-)) [Example 31A, (−)-5-(Benzofuran-2-yl)-3-(6-methoxy-5-(3-methyl-1H-1,2,4-triazol-1-yl)pyridin-2-yl)-5,6-dihydro-4H-1,2,4-oxadiazine] | > 3000 nM |
| COc1nc(C2=NOCC(c3cc(F)c(F)c(F)c3)N2)ccc1-n1cnc(C)c1 (single isomer, unassigned; (+)) [Example 91B, (+)-3-(6-methoxy-5-(4-methyl-1H-imidazol-1-yl)pyridin-2-yl)-5-(3,4,5-trifluorophenyl)-5,6-dihydro-4H-1,2,4-oxadiazine] | 36.5 nM |
| COc1nc(C2=NOCC(c3cc4cccc(Cl)c4o3)N2)ccc1-n1cnc(C)c1 (single isomer, unassigned; (-)) [Example 64A, (−)-5-(7-chlorobenzofuran-2-yl)-3-(6-methoxy-5-(4-methyl-1H-imidazol-1-yl)pyridin-2-yl)-5,6-dihydro-4H-1,2,4-oxadiazine] | 759 nM |
| COc1nc(C2=NOCC(c3cc4ccccc4o3)N2)ccc1-n1cnc(C)c1 (single isomer, unassigned; (+)) [Example 186B, (+)-5-(benzofuran-2-yl)-3-(6-methoxy-5-(4-methyl-1H-imidazol-1-yl)pyridin-2-yl)-5,6-dihydro-4H-1,2,4-oxadiazine] | 38.4 nM |
| COc1nc(C2=NOCC(c3cn(C)c4cccc(F)c34)N2)ccc1-n1cnc(C)c1 (single isomer, unassigned; (-)) [Example 191B, (−)-5-(4-fluoro-1-methyl-1H-indol-3-yl)-3-(6-methoxy-5-(4-methyl-1H-imidazol-1-yl)pyridin-2-yl)-5,6-dihydro-4H-1,2,4-oxadiazine] | 83.2 nM |
| COc1nc(C2=NOCC(c3ccc(F)cc3F)N2)ccc1-n1cnc(C)c1 (single isomer, unassigned) [Example 129B, 5-(2,4-difluorophenyl)-3-(6-methoxy-5-(4-methyl-1H-imidazol-1-yl)pyridin-2-yl)-5,6-dihydro-4H-1,2,4-oxadiazine] | 128 nM |
| COc1nc(C2=NOCC(c3ccc(OC(F)F)cc3)N2)ccc1-n1cnc(C)c1 (single isomer, unassigned; (-)) [Example 93A, (−)-5-(4-(difluoromethoxy)phenyl)-3-(6-methoxy-5-(4-methyl-1H-imidazol-1-yl)pyridin-2-yl)-5,6-dihydro-4H-1,2,4-oxadiazine] | > 3000 nM |
| COc1nc(C2=NOCC(c3c[nH]c4ccccc34)N2)ccc1-n1cnc(C)c1 (single isomer, unassigned) [Example 47A, 5-(1H-indol-3-yl)-3-(6-methoxy-5-(4-methyl-1H-imidazol-1-yl)pyridin-2-yl)-5,6-dihydro-4H-1,2,4-oxadiazine] | 136 nM |
| COc1nc(C2=NOCC(c3cn(C)c4cc(S(C)(=O)=O)ccc34)N2)ccc1-n1cnc(C)c1 (single isomer, unassigned; (-)) [Example 256A, (−)-3-(6-methoxy-5-(4-methyl-1H-imidazol-1-yl)pyridin-2-yl)-5-(1-methyl-6-(methylsulfonyl)-1H-indol-3-yl)-5,6-dihydro-4H-1,2,4-oxadiazine] | 2590 nM |
| COc1nc(C2=NOCC(c3cn(C)c4cccc(F)c34)N2)ccc1-n1cnc(C)c1 (single isomer, unassigned; (+)) [Example 191A, (+)-5-(4-fluoro-1-methyl-1H-indol-3-yl)-3-(6-methoxy-5-(4-methyl-1H-imidazol-1-yl)pyridin-2-yl)-5,6-dihydro-4H-1,2,4-oxadiazine] | 6.9 nM |
| COc1nc(C2=NOCC(c3cn(C)c4cc(S(C)(=O)=O)ccc34)N2)ccc1-n1cnc(C)c1 (single isomer, unassigned; (+)) [Example 256B, (+)-3-(6-methoxy-5-(4-methyl-1H-imidazol-1-yl)pyridin-2-yl)-5-(1-methyl-6-(methylsulfonyl)-1H-indol-3-yl)-5,6-dihydro-4H-1,2,4-oxadiazine] | 422 nM |
| COc1ccc(C2CON=C(c3ccc(-n4cnc(C)c4)c(OC)n3)N2)cc1 (single isomer, unassigned; (+)) [Example 54B, (+)-3-(6-methoxy-5-(4-methyl-1H-imidazol-1-yl)pyridin-2-yl)-5-(4-methoxyphenyl)-5,6-dihydro-4H-1,2,4-oxadiazine] | 97.4 nM |
| COc1nc(C2=NOCC(c3cn(C)c4ccc(Cl)c(F)c34)N2)ccc1-n1cnc(C)c1 (single isomer, unassigned; (-)) [Example 237B, (−)-5-(5-chloro-4-fluoro-1-methyl-1H-indol-3-yl)-3-(6-methoxy-5-(4-methyl-1H-imidazol-1-yl)pyridin-2-yl)-5,6-dihydro-4H-1,2,4-oxadiazine] | 47.1 nM |
| COc1nc(C2=NOCC(C3Cc4ccccc4C3)N2)ccc1-n1cnc(C)c1 (single isomer, unassigned; (-)) [Example 246A, (−)-5-(2,3-dihydro-1H-inden-2-yl)-3-(6-methoxy-5-(4-methyl-1H-imidazol-1-yl)pyridin-2-yl)-5,6-dihydro-4H-1,2,4-oxadiazine] | 576 nM |
| COc1nc(C2=NOCC(c3cccc(C4CC4)c3)N2)ccc1-n1cnc(C)c1 (single isomer, unassigned; (-)) [Example 127A, (−)-5-(3-cyclopropylphenyl)-3-(6-methoxy-5-(4-methyl-1H-imidazol-1-yl)pyridin-2-yl)-5,6-dihydro-4H-1,2,4-oxadiazine] | 1030 nM |
| COc1nc(C2=NOCC(c3cn(C)c4ccc(C5CC5)cc34)N2)ccc1-n1cnc(C)c1 (single isomer, unassigned; (+)) [Example 221B, (+)-5-(5-cyclopropyl-1-methyl-1H-indol-3-yl)-3-(6-methoxy-5-(4-methyl-1H-imidazol-1-yl)pyridin-2-yl)-5,6-dihydro-4H-1,2,4-oxadiazine] | 2.9 nM |
| COc1nc(C2=NOCC(c3cc(F)cc(Cl)c3)N2)ccc1-n1cnc(C)c1 (single isomer, unassigned; (+)) [Example 111B, (+)-5-(3-chloro-5-fluorophenyl)-3-(6-methoxy-5-(4-methyl-1H-imidazol-1-yl)pyridin-2-yl)-5,6-dihydro-4H-1,2,4-oxadiazine] | 22.6 nM |
| COc1nc(C2=NOCC(C(C)(C)C)N2)ccc1-n1cnc(C)c1 (single isomer, unassigned; (+)) [Example 147B, (+)-5-(tert-butyl)-3-(6-methoxy-5-(4-methyl-1H-imidazol-1-yl)pyridin-2-yl)-5,6-dihydro-4H-1,2,4-oxadiazine] | 1720 nM |
| COc1nc(C2=NOCC(C3CCC3)N2)ccc1-n1cnc(C)c1 (single isomer, unassigned; (+)) [Example 163A, (+)-5-cyclobutyl-3-(6-methoxy-5-(4-methyl-1H-imidazol-1-yl)pyridin-2-yl)-5,6-dihydro-4H-1,2,4-oxadiazine] | > 3000 nM |
| COc1nc(C2=NOCC(c3ccccc3C)N2)ccc1-n1cnc(C)c1 (single isomer, unassigned; (-)) [Example 131B, (−)-3-(6-methoxy-5-(4-methyl-1H-imidazol-1-yl)pyridin-2-yl)-5-(o-tolyl)-5,6-dihydro-4H-1,2,4-oxadiazine] | > 3000 nM |
